“Also recorded” adds a separate entry of the source. Where two headings read alike, the source gives them in different places.
How the values were obtained:
[1] = system: lsr expression in E. coli (lsr-lacZ reporter strains); experiment: QS response (lsr expression): AI-2 dependent β-galactosidase production, Miller assay; type: cell-based, Escherichia coli
Experimental: The panel of C1-alkyl analogs was screened to identify QS modulators in the enteric bacteria E. coli and S. typhimurium. Transcription of the QS associated lsr operon, by using lsr-lacZ reporter strains (Table 2) which produce β-galactosidase in response to added AI-2 was monitored. In order to first establish if the analogs were agonists or antagonists in the QS circuit, the analogs were incubated with E. coli LW7 pLW11 and S. typhimurium MET715 (FIG. 19a-b) both of which are luxS^−. None of the analogs, except ethyl-DPD behaved as agonists for lsr expression. Previous studies investigating AI-2 antagonism in P. aeruginosa or in S. typhimurium were carried out using chemically synthesized AI-2 added to luxS^− cells. […] The same trends were obtained by adding a 1:1 ratio of enzymatically synthesized AI-2 and DPD analogs to the luxS^− strains E. coli LW7 pLW11 and S. typhimurium MET715 (FIG. 11a-b). None of the tested DPD analogs were bacteriocidal or bacteriostatic as the OD600 values of E. coli ZK126 pLW11 and S. typhimurium MET708 in the presence and absence of the analogs were similar (FIG. 10). Though the QS circuitry of the enteric organisms, E. coli and S. typhimurium are homologous they respond differently to the DPD analogs. The E. coli QS circuitry is susceptible to being silenced by a variety of DPD analogs of different shapes and sizes whereas in S. typhimurium, only a handful of DPD analogs could antagonize the action of AI-2. […] Isobutyl-DPD emerged as an effective and non-species-specific quencher; causing significant lsr expression knockdowns in both E. coli and S. typhimurium.
The QS response indicated by lsr gene expression was analyzed in pure culture studies by culturing E. coli LW7 pLW11, E. coli ZK126 pLW11 and S. typhimurium MET708, S. typhimurium MET715 overnight in LB medium supplemented with appropriate antibiotics as stated previously. These cells were then diluted into fresh LB medium (with antibiotics) and grown to an OD600 of 0.8-1.0 at 30° C., 250 rpm. Cells were then collected by centrifugation at 10,000×g for 10 minutes, and resuspended in 10 mM phosphate buffer. AI-2 (20 μM) and the respective analog (20 μM) were added to the E. coli or S. typhimurium suspension for 2 hours at 37° C. AI-2 dependent β-galactosidase production was quantified by the Miller assay.
The QS response indicated by lsr gene expression was analyzed in pure culture studies by culturing E. coli LW7 pLW11 and S. typhimurium MET715 overnight at 30° C. in LB medium supplemented with appropriate antibiotics as stated previously. These cells were then diluted into fresh LB medium (with antibiotics) and grown to an OD600 of 0.4-0.8 at 37° C., 250 rpm. Cells were then collected by centrifugation at 10,000×g for 10 min and resuspended in 10 mM phosphate buffer. AI-2 (20 μM) and the respective analog (20 μM) were added to the E. coli or S. typhimurium suspension for 2 h at 37° C. AI-2 dependent β-galactosidase production was quantified by the Miller assay.
The QS response indicated by lsr gene expression was analyzed in pure culture studies by culturing E. coli LW7 pLW11, E. coli ZK126 pLW11 and S. typhimurium MET708, S. typhimurium MET715 overnight in LB medium individually supplemented with appropriate antibiotics, as specified above. These cells were diluted into fresh LB medium (with antibiotics) and grown to an OD600 of 0.8-1.0 at 30° C., 250 rpm. Cells were collected by centrifugation at 10,000×g for 10 minutes, and resuspended in 10 mM phosphate buffer. AI-2 (20 μM) and the respective analog (20 μM) were added to the E. coli or S. typhimurium suspension for 2 hours at 37° C. AI-2 dependent β-galactosidase production was quantified by the Miller assay.

[2] = system: pyocyanin production in P. aeruginosa PAO1; experiment: QS response (pyocyanin production); type: cell-based; settings: pure culture P. aeruginosa PAO1, DPD analogs (100 μM)
Experimental: Identifying Modulators of P. aeruginosa QS. DPD analogs (100 μM) were screened for activity in P. aeruginosa PAO1 by monitoring pyocyanin production (FIG. 34b and FIG. 38).
The cells were grown with the analog at 3 mL total volume in 50 mL flasks in LB medium, with continuous shaking. Between 22-24 h, when the cells turned green after pyocyanin secretion, the pigment was extracted. The pyocyanin quantification assay was conducted as described. 2 mL chloroform was added to the 3 mL culture and pipetted up and down. 1 mL of the chloroform was transferred to a separate tube and the pyocyanin was re-extracted into 200 μL of 0.2 M HCl. The absorbance of the solution was measured at OD 520 nm. To calculate the concentration of pyocyanin extracted as μg/mL, the OD at 520 nm was multiplied by 17.07.

E. coli W3110 pCT6 dsRED = experiment: Tri-species synthetic ecosystem (E. coli, S. typhimurium, P. aeruginosa): AI-2 mediated dsRED expression; type: cell-based; settings: tri-species culture, 40 μM analog, no exogenous AI-2, 24 h
Experimental: (§1) Effect of analogs in a tri-species synthetic ecosystem. […] Isobutyl-DPD (40 μM) and phenyl-DPD (40 μM) were added to a tri-species synthetic ecosystem created by culturing E. coli, S. typhimurium and P. aeruginosa in the same tubes. In order to differentiate and monitor the QS response from each organism, different and orthogonal reporter strains were used; in E. coli, AI-2 mediated dsRED expression, in S. typhimurium, AI-2 mediated β-galactosidase production; and in P. aeruginosa effects of AI-2 were examined for pyocyanin production.
(§2) S. typhimurium MET708, P. aeruginosa PAO1 and E. coli W3110 pCT6 dsRED were each cultured separately overnight in LB medium supplemented with the appropriate antibiotic. P. aeruginosa PAO1, S. typhimurium MET708 and E. coli W3110 pCT6 dsRED were diluted (25 μL:2.5 μL:100 μL) of the overnight culture respectively, into a single 2 mL final volume of fresh LB medium without antibiotics. […] The S. typhimurium lacZ (β-galactosidase) activity was measured after 4 h. The E. coli response was determined after 24 h, by fixing the cells with 1:1 cold 4% paraformaldehyde and using flow cytometric analysis. Samples were analyzed by flow cytometry (FACS Canto II, BD 394 Biosciences), with 30,000 gated events analyzed per sample. […]

S. typhimurium MET708 = experiment: Tri-species synthetic ecosystem (E. coli, S. typhimurium, P. aeruginosa): AI-2 mediated β-galactosidase production; type: cell-based; settings: tri-species culture, 40 μM analog, no exogenous AI-2, 4 h
Experimental: as §1, §2

P. aeruginosa PAO1 = experiment: Tri-species synthetic ecosystem (E. coli, S. typhimurium, P. aeruginosa): pyocyanin production; type: cell-based; settings: tri-species culture, 40 μM analog, no exogenous AI-2, 24 h
Experimental: as §1, §2

SMILES | effect on native lsr expression (QS response) ([1]; E. coli ZK126 pLW11 (luxS+), cells produce their own AI-2) | IC50 (lsr expression in E. coli), in words ([1]; Example 6) | IC50 ([1]; concentration reducing lsr expression (β-galactosidase production) to 50% in the presence of 20 μM exogenously added synthetic DPD, read-out: IC50 of analog (nM) to inhibit QS in E. coli) [nM] | inhibition of pyocyanin production [2] | QS inhibition in E. coli (dsRED expression) (E. coli W3110 pCT6 dsRED) | QS inhibition in S. typhimurium (β-galactosidase production) (S. typhimurium MET708) | inhibition of AI-2-mediated lsr expression (β-galactosidase), in words ([1]; E. coli LW7 pLW11 (luxS−), 20 μM AI-2 (DPD) + 20 μM analog) | IC50 ([1]; Escherichia coli, read-out: IC50 (lsr expression in E. coli)) [nM] | QS inhibition in P. aeruginosa (pyocyanin production) (P. aeruginosa PAO1)
CC(C)CC(=O)C(=O)[C@@H](O)CO [Isobutyl-DPD, isobutyl-DPD] | significant knocked down; also recorded: potent QS “quencher” | nanomolar range | 54 | lack of inhibitory effects | inhibit all three species | inhibit all three species | – | – | –
O=C(C(=O)C(O)CO)c1ccccc1 (stereo not drawn) [Phenyl-DPD, Phenyl DPD] | – | – | – | some inhibition | largely ineffective | largely ineffective | no | > 40000 | retained some activity

From patent publication US8952192B2, “Phosphorylated and branched dihydroxy-pentane-dione (DPD) analogs as quorum sensing inhibitors in bacteria” (University of Maryland, College Park, priority 2011, dated 2015)
